Test results published in ChEMBL document CHEMBL5209577, “Flow cytometry transport assay for SLC2A1 using HEK293 JumpIN TRex SLC2A1 WT-OE cells” (2022).

Molecular target: T1, Solute carrier family 2, facilitated glucose transporter member 1 (Homo sapiens, UniProt P11166)
T1 sequence (P11166 whole entry): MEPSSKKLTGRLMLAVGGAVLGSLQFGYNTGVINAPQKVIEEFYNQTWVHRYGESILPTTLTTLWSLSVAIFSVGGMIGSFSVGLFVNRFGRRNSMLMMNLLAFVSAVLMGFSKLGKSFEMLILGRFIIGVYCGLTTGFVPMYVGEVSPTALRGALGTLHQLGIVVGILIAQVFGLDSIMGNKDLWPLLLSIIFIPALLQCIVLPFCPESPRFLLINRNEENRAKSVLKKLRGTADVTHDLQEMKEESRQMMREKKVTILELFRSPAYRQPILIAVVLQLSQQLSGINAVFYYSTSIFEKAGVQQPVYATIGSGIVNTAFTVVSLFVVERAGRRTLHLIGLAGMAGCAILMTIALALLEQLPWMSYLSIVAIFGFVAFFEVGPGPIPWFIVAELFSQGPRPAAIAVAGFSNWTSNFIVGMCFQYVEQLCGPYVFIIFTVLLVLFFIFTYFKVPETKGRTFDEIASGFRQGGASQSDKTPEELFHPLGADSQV
Test: Inhibition of the Glucose Transporter (GLUT1, SLC2A1) as assessed by a FRET based flow cytometry assay using a genetically-encoded biosensor for measuring free glucose (FLII12Pglu-700uDelta6) in HEK293 JumpIN TRex SLC2A1 WT-OE cells (PubChem AID: 1794830)
Type: functional, cell-based

SMILES	IC50 [µM]	EC50 [µM]
O=C(Oc1cccc(F)c1OC(=O)c1cccc(O)c1)c1cccc(O)c1	> 10	–
OC[C@H]1OC(O)[C@H](O)[C@@H](O)[C@@H]1O (some centres not stated) [DEXTROSE]	–	527
